By IC90 is commonly meant the concentration needed for an effect of 90%.

Counter-ions that a name gives are not always drawn.

The first test concerns Acinetobacter baumannii ATCC 17978. Kind of test: Antimicrobial susceptibility testing: 90% growth inhibitory concentration (IC90) determination. In kind it is cell-based. As to conditions: 90% growth inhibitory concentration; Acinetobacter baumannii ATCC17978; Iso-Sensitest broth, OD 600 nm over 16h; read-out: ATCC17978 IC90. In short, it runs like this: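 Growth of the Acinetobacter baumannii strain was followed by optical density at 600 nm every 20 minutes for 16h at 35±2° C. Inoculum was ~5×10^(5) CFU/ml in Iso-Sensitest medium, with twofold compound dilutions (e.g. 50 to 0.097 μM final). The 90% inhibitory concentration was derived in log-phase growth.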
`CCc1cc(Nc2nccn3c(-c4ccc(OC)c(F)c4F)cnc23)ccc1C(=O)NCCCCCCCCN` [Example 540, N-(8-aminooctyl)-4-((3-(2,3-difluoro-4-methoxyphenyl)imidazo[1,2-a]pyrazin-8-yl)amino)-2-ethylbenzamide hydrochloride]: the concentration for an effect of 90% (IC90) was found to be 0.1 µM.
Same read-out and setting: for `COc1ccc(-c2cnc3c(Nc4ccc(C(=O)N(C)CCN5CCOC(CN(C)C)C5)c(C)c4)nccn23)cc1F` (stereo not drawn) [Example 108, N-[2-[2-[(dimethylamino)methyl]morpholin-4-yl]ethyl]-4-[[3-(3-fluoro-4-methoxy-phenyl)imidazo[1,2-a]pyrazin-8-yl]amino]-N,2-dimethyl-benzamide; formic acid] the value was 1.2 µM.
On the same count and under the same terms, for `CCc1cc(Nc2nccn3c(-c4ccc(OC)c(F)c4F)cnc23)ccc1C(=O)NCCN` [Example 117, N-(2-aminoethyl)-4-((3-(2,3-difluoro-4-methoxyphenyl)imidazo[1,2-a]pyrazin-8-yl)amino)-2-ethylbenzamide dihydrochloride] the value was 0.56 µM.
As for `Cc1cc(Nc2nccn3c(-c4ccc(OC(F)F)cc4)cnc23)ccc1C(=O)N(C)CCC1CCNCC1` [Example 81, 4-((3-(4-(difluoromethoxy)phenyl)imidazo[1,2-a]pyrazin-8-yl)amino)-N,2-dimethyl-N-(2-(piperidin-4-yl)ethyl)benzamide], the 90% effect concentration (IC90) is 0.2 µM.
Turning to `CCc1cc(Nc2nccn3c(-c4ccc(OC)c(F)c4F)cnc23)ccc1C(=O)NCCNC(=O)[C@@H](N)CCCNC(=N)NCCCC(=O)O` [Example 157, (S)-7-amino-1-(4-((3-(2,3-difluoro-4-methoxyphenyl)imidazo[1,2-a]pyrazin-8-yl)amino)-2-ethylphenyl)-12-imino-1,6-dioxo-2,5,11,13-tetraazaheptadecan-17-oic acid trihydrochloride], the IC90 was 0.32 µM.
Consider `Cc1cc(Nc2nccn3c(-c4ccc(Cl)c(F)c4F)cnc23)ccc1C(=O)NC(C)CCN` (stereo not drawn) [Example 318, N-(4-aminobutan-2-yl)-4-[[3-(4-chloro-2,3-difluorophenyl)imidazo[1,2-a]pyrazin-8-yl]amino]-2-methylbenzamide; hydrochloride], for which the IC90 came out at 2.5 µM.

The test is the same for the next values; noted with them: Acinetobacter baumannii, ATCC17978, 16 h, 90% growth inhibitory concentration; Acinetobacter baumannii ATCC17978; Iso-Sensitest broth, OD 600 nm over 16h; read-out: ATCC17978 IC90.
Regarding `CNC(=O)c1ccc(Nc2nccn3c(-c4ccc(OC(F)F)cc4)cnc23)cc1Br` [Example 93, 2-bromo-4-((3-(4-(difluoromethoxy)phenyl)imidazo[1,2-a]pyrazin-8-yl)amino)-N-methylbenzamide], the 90% effect concentration (IC90) stood at 0.2 µM.
Consider `COc1ccc(-c2cnc3c(Nc4ccc(C(=O)N(C)C)c(C)c4)nccn23)c(F)c1F` [Example 1, 4-((3-(2,3-difluoro-4-methoxyphenyl)imidazo[1,2-a]pyrazin-8-yl)amino)-N,N,2-trimethylbenzamide], for which the 90% effect concentration (IC90) amounted to 0.12 µM.
On to `COc1ccc(-c2cnc3c(Nc4ccc(C(=O)NCCNC(=O)N5CCN[C@@H](C(=O)O)C5)c(C)c4)nccn23)c(F)c1F` [Example 352, (2R)-4-[2-[[4-[[3-(2,3-difluoro-4-methoxyphenyl)imidazo[1,2-a]pyrazin-8-yl]amino]-2-methylbenzoyl]amino]ethyl-carbamoyl]piperazine-2-carboxylic acid;formic acid], for which the IC90 came out at 1.3 µM.
For the compound `CCc1cc(Nc2nccn3c(-c4ccc(OC)c(F)c4F)cnc23)ccc1C(=O)NCCC1CCN(CCC(=O)O)CC1` [Example 301, 3-[4-[2-[[4-[[3-(2,3-difluoro-4-methoxyphenyl)imidazo[1,2-a]pyrazin-8-yl]amino]-2-ethylbenzoyl]amino]ethyl]piperidin-1-yl]propanoic acid], the IC90 is 0.27 µM.
`COc1ccc(-c2cnc3c(Nc4ccc(C(=O)NCCCN5CCNC(C(=O)O)C5)c(C)c4)nccn23)cc1F` (stereo not drawn) [Example 2, 4-(3-(4-((3-(3-fluoro-4-methoxyphenyl)imidazo [1,2-a]pyrazin-8-yl)amino)-2-methylbenzamido)propyl) piperazine-2-carboxylic acid]: the IC90 is 4.6 µM.
For `COc1ccc(-c2cnc3c(Nc4ccc(C(=O)NCCCCCN)c(C)c4)nccn23)c(F)c1F` [Example 491, N-(5-aminopentyl)-4-((3-(2,3-difluoro-4-methoxyphenyl)imidazo[1,2-a]pyrazin-8-yl)amino)-2-methylbenzamide hydrochloride], the 90% effect concentration (IC90) stood at 0.041 µM.
With `CCc1cc(Nc2nccn3c(-c4ccc(OC)c(F)c4F)cnc23)ccc1C(=O)NC[C@@H](C)NC(=O)[C@@H](N)CCCNC(=N)N` [Example 122, N-[(2R)-2-[[(2S)-2-amino-5-guanidino-pentanoyl]amino]propyl]-4-[[3-(2,3-difluoro-4-methoxy-phenyl)imidazo[1,2-a]pyrazin-8-yl]amino]-2-ethyl-benzamide formate], the IC90 came out at 0.31 µM.
`Cc1cc(Nc2nccn3c(-c4ccc(OC(F)F)cc4)cnc23)ccc1C(=O)N(CCN1CCNCC1)C1CC1` [Example 284, N-cyclopropyl-4-[[3-[4-(difluoromethoxy)phenyl]im-idazo[1,2-a]pyrazin-8-yl]amino]-2-methyl-N-(2-piperazin-1-ylethyl)benzamide;hydrochlo-ride]: the IC90 was determined as 2.1 µM.
With `CCc1cc(Nc2nccn3c(-c4ccc(OCc5cc[nH]n5)c(F)c4F)cnc23)ccc1C(=O)N[C@@H](C)CN` (racemic) [Example 485, rac-(R)-4-((3-(4-((1H-pyrazol-3-yl)methoxy)-2,3-difluorophenyl)imidazo[1,2-a]pyrazin-8-yl)amino)-N-(1-aminopropan-2-yl)-2-ethylbenzamide], the 90% effect concentration (IC90) turned out to be 0.8 µM.
With `CNC(=O)c1ccc(Nc2nccn3c(-c4ccc(Cl)cc4)cnc23)cc1C` [Example 185, 4-[[3-(4-chlorophenyl)imidazo[1,2-a]pyrazin-8-yl]amino]-N,2-dimethylbenzamide], the IC90 is 0.23 µM.
Consider `Cc1cc(Nc2nccn3c(-c4ccc(OC(F)F)cc4)cnc23)ccc1C(=O)NC[C@H](C)N` [Example 254, N-[(2S)-2-aminopropyl]-4-[[3-[4-(difluoromethoxy)phenyl]im-dazo[1,2-a]pyrazin-8-yl]amino]-2-methylbenzamide; hydrochlo-ride], for which the IC90 came out at 3.3 µM.
Take `Cc1cc(Nc2nccn3c(-c4ccc(OC(F)F)cc4)cnc23)ccc1C(=O)N(C)CCN(C)C` [Example 50, 4-((3-(4-(difluoromethoxy)phenyl)imidazo[1,2-a]pyrazin-8-yl)amino)-N-(2-(dimethylamino)ethyl)-N,2-dimethylbenzamide]: the IC90 is 4.3 µM.
As for `CCc1cc(Nc2nccn3c(-c4ccc(OC)c(F)c4F)cnc23)ccc1C(=O)NCC(O)CN1CCCC1` (stereo not drawn) [Example 304, 4-[[3-(2,3-difluoro-4-methoxyphenyl)imidazo[1,2-a]pyrazin-8-yl]amino]-2-ethyl-N-(2-hydroxy-3-pyrrolidin-1-ylpropyl)benzamide], the 90% effect concentration (IC90) is 0.36 µM.
Take `CCc1cc(Nc2nccn3c(-c4ccc(OC)c(F)c4F)cnc23)ccc1C(=O)NCCCCCCN1CCCCC1` [Example 534, 4-((3-(2,3-difluoro-4-methoxyphenyl)imidazo[1,2-a]pyrazin-8-yl)amino)-2-ethyl-N-(6-(piperidin-1-yl)hexyl)benzamide]: the IC90 is 0.041 µM.
In the case of `Cc1cc(Nc2nccn3c(-c4ccc(Cl)c(F)c4F)cnc23)ccc1C(=O)N(C)CCN` [Example 241, N-(2-aminoethyl)-4-[[3-(4-chloro-2,3-difluorophenyl)imidazo[1,2-a]pyrazin-8-yl]amino]-N,2-dimethylbenzamide;hydrochlo-ride], the IC90 worked out at 1.9 µM.
Still for that read-out and setting: for `COc1ccc(-c2cnc3c(Nc4ccc(C(=O)N(C)C)c(C)c4)nccn23)cc1` [Example 13, 4-((3-(4-methoxyphenyl)imidazo [1,2-a]pyrazin-8-yl)amino)-N,N,2-trimethylbenzamide] the value was 0.24 µM.
Consider `CNC(=O)c1ccc(Nc2nccn3c(-c4ccc(OC)c(Cl)c4)cnc23)cc1` [Example 181, 4-[[3-(3-chloro-4-methoxyphenyl)imidazo[1,2-a]pyrazin-8-yl]amino]-N-methylbenzamide;2,2,2-trifluoroacetic acid], for which the 90% effect concentration (IC90) is 1.3 µM.
With `COc1ccc(-c2cnc3c(Nc4ccc(C(=O)NCCCN)c(C)c4)nccn23)c(F)c1F` [Example 64, N-(3-aminopropyl)-4-((3-(2,3-difluoro-4-methoxyphenyl)imidazo [1,2-a]pyrazin-8-yl)amino)-2-methylbenzamide], the concentration for an effect of 90% (IC90) was found to be 0.23 µM.
Take `CCc1cc(Nc2nccn3c(-c4ccc(Oc5ccc(OCCCN)cn5)c(F)c4F)cnc23)ccc1C(=O)N(C)C` [Example 510, 4-[[3-[4-[[5-(3-aminopropoxy)-2-pyridyl]oxy]-2,3-difluoro-phenyl]imidazo[1,2-a]pyrazin-8-yl]amino]-2-ethyl-N,N-dimethyl-benzamide; formic acid]: the concentration for an effect of 90% (IC90) came out at 0.86 µM.
Regarding `CCc1cc(Nc2nccn3c(-c4ccc(OC)c(F)c4F)cnc23)ccc1C(=O)NCCNC(=O)[C@@H](N)[C@@H](C)O` [Example 393, N-[2-[[(2S,3R)-2-amino-3-hydroxy-butanoyl]amino]ethyl]-4-[[3-(2,3-difluoro-4-methoxy-phenyl)imidazo[1,2-a]pyrazin-8-yl]amino]-2-ethyl-benzamide; formic acid], the IC90 is 0.26 µM.
On the same count and under the same terms, for `CCc1cc(Nc2nccn3c(-c4ccc(OC)c(F)c4F)cnc23)ccc1C(=O)NCCCNC(=O)[C@H](CCCNC(=N)N)NC(=O)[C@@H](N)CCC(=O)O` [Example 156, (S)-4-amino-5-(((S)-1-((3-(4-((3-(2,3-difluoro-4-methoxyphenyl)imidazo[1,2-a]pyrazin-8-yl)amino)-2-ethylbenzamido)propyl)amino)-5-guanidino-1-oxopentan-2-yl)amino)-5-oxopentanoic acid trihydrochloride] the value was 0.34 µM.

Values taken from US20230012368A1 (Hoffmann-La Roche Inc., priority 2018, published 2023).
